According to patent US11933780B2, “System and method for assessing an effect on cellular units in an organism” (Functional Fluidics Inc., priority 2022, dated 2024):

Tested on: erythrocytes
Assay: percentage of sickling of erythrocytes over time during deoxygenation by the PCA/PCD system
Format: cell-based
Source text: FIG. 5 is a graph illustrating a percentage of sickled erythrocytes over time for one sample that is exposed to a drug and one that is not.
Referring again to FIG. 3, the method may continue with the step 60 of deoxygenating the supporting medium in the aliquot of sample A and, in certain embodiments, the supporting medium in the aliquot of sample B to induce at least one of a predetermined amount of hypoxia and a predetermined rate of oxygen consumption in each of the supporting mediums. Deoxygenation of the supporting mediums in the aliquots of samples A and B may occur at the same or different times. Deoxygenation may be performed through enzymatic catalysis using enzymatic oxygen scavengers/scrubbers such as glucose oxidase or pyranose oxidase. In a preferred embodiment, deoxygenation is performed through enzymatic catalysis using a reaction substrate comprising protocatechuic acid (PCA) and a reaction enzyme comprising […] (PCD). PCD catalyzes the conversion of PCA and oxygen in the supporting medium in a 1:1 stoichiometry into β-carboxy-cis, cis-muconic acid (CMA). The use of PCA/PCD has a number of advantages relative to other enzymatic catalysis methods and other methods of deoxygenation. […] The use of PCA/PCD can achieve greater levels of hypoxia in the samples relative to some other methods. The use of PCA/PCD can also achieve specific levels of hypoxia as opposed to proceeding to complete hypoxia as in other methods thereby allowing simulation of more specific conditions (e.g., for a particular organ or particular level of hypoxia). Most importantly, the use of PCA/PCD allows accurate control of the rate of oxygen consumption in both the supporting medium and, as a result, the rate of deoxygenation of Hb in embodiments where the cellular unit comprises erythrocytes or extracellular Hb. Conventional methods of deoxygenation assume equilibrium or quasi-equilibrium conditions in which, for example, the rate of Hb deoxygenation occurs […] than the rate of oxygen consumption in the supporting medium. […]

[1] = FIG. 5, curve 76 vs curve 78, PCA/PCD deoxygenation at the same rate of oxygen consumption

For `CC(C)n1nccc1-c1ncccc1COc1cccc(O)c1C=O` [voxelotor], the “percentage of sickling of erythrocytes over time” value (FIG. 5, curve 76 (voxelotor) vs curve 78, same erythrocyte-containing sample deoxygenated by PCA/PCD at the same rate of oxygen consumption) was “reduction in sickling”, the delay in sickling [1] was “longer delay in sickling” and the erythrocyte sickling rate [1] was “slower erythrocyte sickling rate”.
